{"source": "patent US12268683B2", "about": "“Compounds and methods for synergistic activation of M channels” (THE REGENTS OF THE UNIVERSITY OF CALIFORNIA, priority 2018, dated 2025)", "key": {"KCNQ2-W236L/KCNQ3": {"target": "KCNQ2-W236L/KCNQ3 (Homo sapiens, UniProt O43525+O43526, W236L)", "assay": "TEVC of KCNQ2-W236L/KCNQ3 channels", "type": "cell-based", "text": "As previously described (12), we generated cRNA transcripts encoding human KCNA1, KCNE1, KCNE2, KCNE3, KCNQ1, KCNQ2, KCNQ3, KCNQ4 or KCNQ5 by in vitro transcription using the T7 polymerase mMessage mMachine kit (Thermo Fisher Scientific), after vector linearization, from cDNA sub-cloned into plasmids incorporating Xenopus laevis β-globin 5′ and 3′ UTRs flanking the coding region to enhance translation and cRNA stability. We quantified cRNA by spectrophotometry. We generated mutant KCNQ2 and KCNQ3 cDNAs by site-directed mutagenesis with a QuikChange kit (Stratagene, San Diego, Calif.) and prepared the cRNAs as above. We injected defolliculated stage V and VI Xenopus laevis oocytes (Ecocyte Bioscience, Austin, Tex. and Xenoocyte, Dexter, Mich., US) with KCNE and/or KCNQ cRNAs (5-20 ng). We incubated the oocytes at 16° C. in Barth's saline solution (Ecocyte) containing penicillin and streptomycin, with daily washing, for 3-5 days prior to two-electrode voltage-clamp (TEVC) recording.\nWe performed TEVC at room temperature using an OC-725C amplifier (Warner Instruments, Hamden, Conn.) and pClamp10 software (Molecular Devices, Sunnyvale, Calif.) 2-5 days after cRNA injection as described in the section above. For recording, we placed the oocytes in a small-volume oocyte bath (Warner) and viewed them with a dissection microscope. We sourced chemicals from Sigma unless otherwise stated. We studied effects of 1% cilantro extract and of nine compounds previously identified in cilantro extract. Vanillic acid and 3,4-Dihydroxybenzoic acid were each solubilized in 100% ethanol at a stock concentration of 100 mM; the other compounds were solubilized directly in bath solution. We initially screened for KCNQ2/3 channel activity using 100 μM concentrations of each of the nine components, then conducted dose responses where appropriate. […] We recorded currents in response to voltage pulses between −120 or −80 mV and +40 mV at 20 mV intervals from a holding potential of −80 mV, to yield current-voltage relationships, current magnitude, and for quantifying activation rate. We analyzed data using Clampfit (Molecular Devices) and Graphpad Prism software (GraphPad, San Diego, Calif., USA); values are stated as mean±SEM. […]\nWe generated cRNA transcripts encoding human KCNQ1, KCNQ2, KCNQ3, KCNQ4, KCNQ5 or GLRA1 (NM_001146040) (GenScript, Piscataway, N.J., USA) by in vitro transcription using the T7 polymerase mMessage mMachine kit (Thermo Fisher Scientific), after vector linearization, from cDNA sub-cloned into plasmids incorporating Xenopus laevis β-globin 5′ and 3′ UTRs flanking the coding region to enhance translation and cRNA stability. We quantified cRNA by spectrophotometry. […]"}, "[1]": {"test_system": "pentylene tetrazole-induced seizures", "assay": "PTZ chemoconvulsant assay", "type": "in vivo, mouse", "details": "for clonic seizure incidence: alone", "text": "We compared anticonvulsant activities of test compounds in male C57BL/6 mice (Charles River) aged 2-3 months. Mice were housed and used according to the recommendations in the Guide for the Care and Use of Laboratory Animals of the National Institutes of Health (NIH Publication, 8th edition, 2011). The study protocol was approved by the Institutional Animal Care and Use Committee of University of California, Irvine, which confirmed that all relevant ethical regulations were adhered to. Chemicals were sourced from Sigma (St. Louis, Mo., USA). A pentylene tetrazole (PTZ) chemoconvulsant assay was used-. […] Following the PTZ injection, mice were caged individually and an observer (GWA) blinded to the drug used recorded, over 20 min, clonic and tonic seizure incidence, and seizure-related mortality.\nWe quantified the anticonvulsant activities of (E)-2-dodecenal and tridecanal in male C57BL/6 mice (Charles River, Wilmington, Mass.) aged 2-3 months. The mice were housed and used according to the recommendations in the Guide for the Care and Use of Laboratory Animals of the National Institutes of Health (NIH Publication, 8th edition, 2011). The study protocol was approved by the Institutional Animal Care and Use Committee of University of California, Irvine. The chemicals were sourced from Sigma (St. Louis, Mo., USA). We used a pentylene tetrazole (PTZ) chemoconvulsant assay as we previously described (30). We injected the mice intraperitoneally with (E)-2-dodecenal (2 or 20 mgkg^−1) (with or without 2.5 mgkg^−1 XE991) or tridecanal (20 mgkg^−1) solubilized in PBS, or vehicle control (PBS), and then 30 minutes later we injected mice intraperitoneally with 80 mgkg-PTZ. Following the PTZ injection, the mice were caged individually and an observer (GWA) blinded to the experimental condition timed the latency to first seizure.\nWe compared anticonvulsant activities of 3FMSG in male C57BL/6 mice (Charles River) aged 2-3 months. Mice were housed and used according to the recommendations in the Guide for the Care and Use of Laboratory Animals of the National Institutes of Health (NIH Publication, 8th edition, 2011). The study protocol was approved by the Institutional Animal Care and Use Committee of University of California, Irvine, which confirmed that all relevant ethical regulations were adhered to. Chemicals were sourced from Sigma (St. Louis, Mo., USA). We used a pentylene tetrazole (PTZ) chemoconvulsant assay as we previously described^27. Mice were injected intraperitoneally with 3FMSG (5 mg kg^−1) or vehicle control (PBS) and then 30 minutes later injected intraperitoneally with 80 mg kg^−1 PTZ. Following the PTZ injection, mice were caged individually and an observer (GWA) blinded to the drug used recorded seizure activity over 20 minutes."}}}
{"smiles": "CS(=O)(=O)N(CC(=O)O)c1cccc(F)c1", "note": "[3FMSG]", "values": [{"measurement": "effect on KCNQ2-W236L/KCNQ3 (in words)", "setting": "KCNQ2-W236L/KCNQ3", "value": "independent of KCNQ2-W236"}, {"measurement": "incidence of PTZ-induced tonic seizures", "setting": "[1]; 5 mg/kg i.p.", "value": "reduced by threefold"}]}
{"smiles": "CCCCCCCCC/C=C/C=O", "note": "[(E)-2-dodecenal]", "values": [{"measurement": "potency reduction by KCNQ2-W236L relative to KCNQ3-W265L mutation", "setting": "KCNQ2-W236L/KCNQ3", "value": 20, "unit": "fold"}, {"measurement": "maximal shift in ΔV0.5activation", "setting": "KCNQ2-W236L/KCNQ3; (E)-2-dodecenal", "value": "−9", "unit": "mV"}, {"measurement": "EC50", "setting": "KCNQ2-W236L/KCNQ3; ΔV0.5activation, read-out: EC50 of (E)-2-dodecenal", "value": "5.07 ± 0.5", "unit": "µM"}, {"measurement": "latency to first PTZ-induced seizure", "setting": "[1]; 2 mgkg−1 i.p.", "value": "threefold"}, {"measurement": "latency to first PTZ-induced seizure", "setting": "[1]; 20 mgkg−1 i.p.", "value": "> threefold"}]}
{"smiles": "CC(=O)c1c(O)c(C)c(O)c(Cc2c(O)c3c(c(C(=O)/C=C/c4ccccc4)c2O)OC(C)(C)C=C3)c1O", "note": "[MTX, mallotoxin]", "values": [{"measurement": "clonic seizure incidence", "setting": "[1]; 10 mg/kg i.p.", "value": "neither compound reduced clonic seizures alone"}, {"measurement": "clonic seizure incidence", "setting": "[1]; 20 mg/kg i.p.", "value": "halved"}, {"measurement": "suppression of PTZ-induced tonic seizures", "setting": "[1]; individually", "value": "ineffective"}]}
